The Deep4Chem optical property database
One block for each compound: values may come before it.

Assay: solvent given as SMILES

absorption maximum (in ClC(Cl)Cl): 434 nm
SMILES: CCN(CC)c1ccc2cc(-c3cn4cc5ccccc5cc4n3)c(=O)oc2c1

absorption maximum (in CO): 760 nm
SMILES: O=C(O)CCCCCn1/c(=C/C=C/C2=[N+](CCCCCC(=O)O)c3cccc4cccc2c34)c2cccc3cccc1c32

absorption maximum (in ClCCl): 405 nm
SMILES: CCCCCCc1cc2c3c(c1)c(=C(c1ccccc1)c1ccccc1)c1cc(CCCCCC)cc4c1N3c1c(cc(CCCCCC)cc1c4=C(c1ccccc1)c1ccccc1)c2=C(c1ccccc1)c1ccccc1

absorption maximum (in CN(C)C=O): 330 nm
SMILES: Cc1cc(-c2ccc(-c3nc4ccccc4[nH]3)cc2)ccc1-c1ccc(-c2nc3ccccc3[nH]2)cc1

absorption maximum (in C1CCOC1): 400 nm
SMILES: Cc1ccc(-c2cnc3nn4ccccc4c3n2)cc1

SMILES: O=[N+]([O-])c1ccc(F)cc1C1CC(c2cccc3ccccc23)=NN1c1ccccc1 (centres undefined)
absorption maximum (in C1CCCCC1): 365 nm | absorption maximum (in C1CCOC1): 374 nm | absorption maximum (in C1COCCO1): 372 nm | absorption maximum (in CC#N): 367 nm | absorption maximum (in CC(C)O): 370 nm | absorption maximum (in CCOC(C)=O): 371 nm | absorption maximum (in CCOCC): 363 nm | absorption maximum (in CO): 372 nm | absorption maximum (in Cc1ccccc1): 368 nm | absorption maximum (in ClC(Cl)Cl): 363 nm | absorption maximum (in O): 375 nm

absorption maximum (in C1CCCCC1): 339 nm | absorption maximum (in C1CCOC1): 342 nm | absorption maximum (in C1COCCO1): 341 nm | absorption maximum (in CC#N): 334 nm | absorption maximum (in CC(C)(C)O): 345 nm | absorption maximum (in CC(C)O): 340 nm | absorption maximum (in CCCCCC): 339 nm | absorption maximum (in CCCCO): 340 nm | absorption maximum (in CCO): 340 nm | absorption maximum (in CCOC(C)=O): 340 nm | absorption maximum (in CN(C)C=O): 344 nm | absorption maximum (in CO): 341 nm | absorption maximum (in CS(C)=O): 346 nm | absorption maximum (in ClC(Cl)Cl): 337 nm | absorption maximum (in ClCCl): 335 nm | absorption maximum (in O): 342 nm | absorption maximum (in OCCO): 342 nm
SMILES: Cc1cc(O)c(C(C)C)cc1/N=C/c1ccc(O)cc1

absorption maximum (in C1COCCO1): 363 nm
SMILES: CCC1=C(C2=C(C3=C(CC)S(=O)(=O)c4cc(-c5ccc(C(C)=O)s5)ccc43)C(F)(F)C(F)(F)C2(F)F)c2ccc(-c3ccc(C(C)=O)s3)cc2S1(=O)=O

absorption maximum (in C1CCCCC1): 402 nm | absorption maximum (in CC#N): 404 nm | absorption maximum (in CO): 401 nm | absorption maximum (in ClCCl): 405 nm
SMILES: COc1c2ccccc2c(OC)c2c1c1ccc(C)cc1n2C

absorption maximum (in ClC(Cl)Cl): 623 nm
SMILES: F[B-]1(F)n2c(ccc2-c2nc3ccccc3s2)C(c2ccccc2)=C2C=CC(c3nc4ccccc4s3)=[N+]21

absorption maximum (in CC#N): 357 nm | absorption maximum (in ClCCl): 360 nm
SMILES: Cc1cc(O)c(C(=O)/C=C/c2ccc(Cl)cc2)c(=O)o1

SMILES: COc1ccc(C(=O)/C=C/c2ccc(N(C)C)cc2)cc1OC
absorption maximum (in C1CCOC1): 403 nm | absorption maximum (in CC#N): 412 nm | absorption maximum (in CC(=O)O): 426 nm | absorption maximum (in CC(C)=O): 408 nm | absorption maximum (in CCO): 419 nm | absorption maximum (in CN(C)C=O): 416 nm | absorption maximum (in CO): 421 nm | absorption maximum (in Cc1ccccc1): 404 nm | absorption maximum (in ClC(Cl)Cl): 417 nm | absorption maximum (in c1ccccc1): 406 nm

absorption maximum (in ClC(Cl)Cl): 422 nm
SMILES: COc1ccc2c(C#N)cc3ccc4cc(C#N)c5ccc(OC)cc5c4c3c2c1

absorption maximum (in ClCCl): 353 nm
SMILES: Fc1ccccc1N1c2c(sc3ccccc23)Sc2sc3ccccc3c21

SMILES: F[B-]1(F)Oc2ccccc2-c2cc(-n3c4ccccc4c4ccccc43)cc[n+]21
absorption maximum (in Cc1ccccc1): 366 nm

absorption maximum (in ClCCl): 373 nm | absorption maximum (in O): 326 nm
SMILES: O=Cc1ccc(-c2ccc(-c3nc4ccccc4s3)c(O)c2)o1

absorption maximum (in C1CCOC1): 438 nm
SMILES: C1=C(c2ccccc2)C=C(c2ccccc2)/C1=C/c1ccccc1

absorption maximum (in CO): 258 nm | absorption maximum (in CS(C)=O): 266 nm
SMILES: COc1ccc(NC(=O)C(C(=O)Nc2ccc(OC)cc2)C(c2ccccc2O)c2c(C)[nH]c3ccccc23)cc1 (centres undefined)

absorption maximum (in CO): 354 nm
SMILES: N#Cc1ccc(N/N=C/c2cc(Cl)ccc2O)cc1

absorption maximum (in ClCCl): 518 nm
SMILES: Brc1cc2nc3cc4c5c(cccc5c3nc2cc1Br)C(c1ccccc1)=C(c1ccccc1)O4

SMILES: [NH3+]c1ccc2c(c1)Cc1ccccc1-2
absorption maximum (in O): 299 nm

absorption maximum (in ClCCl): 377 nm
SMILES: CC(C)(C)c1ccc(-c2cc(-c3ccc(-c4cc(-c5ccc(C(C)(C)C)cc5)c(C(=O)N5CCOCC5)s4)s3)sc2C(=O)N2CCOCC2)cc1

SMILES: CC(C)(C)c1ccc2c(c1)c1cc(C(C)(C)C)ccc1n2-c1ccc(C(=O)c2ccncc2)cc1
absorption maximum (in C1CCOC1): 367.32 nm | absorption maximum (in CCCCCC): 372.17 nm | absorption maximum (in Cc1ccccc1): 373.66 nm | absorption maximum (in ClCCl): 377.92 nm

absorption maximum (in C1CCCCC1): 286.2 nm
SMILES: COc1ccc(OC)cc1

absorption maximum (in O): 439 nm
SMILES: O=C(O)CCCCCn1c2ccccc2c(=O)c2cc(Br)ccc21

absorption maximum (in CO): 432 nm
SMILES: C(=C\c1cc[n+]2ccc(/C=C/c3ccsc3)cc2c1)/c1ccsc1

absorption maximum (in ClC(Cl)Cl): 445 nm
SMILES: Cc1ccc(S(=O)(=O)/N=c2\oc3cccc4c5c(-c6ccccc6)oc6cccc(c(c2-c2ccccc2)c34)c65)cc1

absorption maximum (in C1CCCCC1): 354 nm | absorption maximum (in C1COCCO1): 367 nm | absorption maximum (in CC#N): 362 nm | absorption maximum (in CN(C)C=O): 341 nm | absorption maximum (in CO): 359 nm | absorption maximum (in O): 358 nm | absorption maximum (in OCC(O)CO): 364 nm | absorption maximum (in OCCO): 370 nm
SMILES: COc1cc(/C=C2/SC(=O)NC2=O)cc(OC)c1O

SMILES: C1=C(c2ccc(-c3cccs3)s2)CCC1
absorption maximum (in C1CCOC1): 345 nm | absorption maximum (in CC#N): 342 nm | absorption maximum (in CCCCCC): 341 nm | absorption maximum (in CCO): 341 nm | absorption maximum (in OCCOCCO): 347 nm | absorption maximum (in c1ccncc1): 348 nm

SMILES: N#Cc1nc2c(nc1C#N)C1c3ccc(N(c4ccccc4)c4ccccc4)cc3C2c2ccc(N(c3ccccc3)c3ccccc3)cc21
absorption maximum (in C1CCCCC1): 408 nm | absorption maximum (in CC#N): 378 nm | absorption maximum (in Cc1ccccc1): 391 nm | absorption maximum (in ClCCl): 409 nm

absorption maximum (in C1CCOC1): 376 nm | absorption maximum (in CO): 380 nm
SMILES: CCOC(=O)C1=CN(c2ccccc2)C=C(C(=O)OCC)C1

absorption maximum (in O): 480 nm
SMILES: CC[n+]1c(-c2ccccc2)c2cc(N)ccc2c2ccc(N)cc21

absorption maximum (in ClCCl): 363 nm
SMILES: Cc1cc(C)c(-c2cc(-c3c(C)cc(C)cc3C)c3ccc4c(-c5c(C)cc(C)cc5C)cc(-c5c(C)cc(C)cc5C)c5ccc2c3c54)c(C)c1

absorption maximum (in CC#N): 381.03 nm | absorption maximum (in CO): 391.71 nm
SMILES: Cn1cc(/C=C/C(=O)c2ccccc2)c2ccccc21

absorption maximum (in ClCCl): 343 nm
SMILES: c1ccc2c(c1)OP1(=NP(Oc3ccc4ccc5cccc6ccc3c4c56)(Oc3ccc4ccc5cccc6ccc3c4c56)=NP(Oc3ccc4ccc5cccc6ccc3c4c56)(Oc3ccc4ccc5cccc6ccc3c4c56)=N1)Oc1ccccc1-2

SMILES: CC(C)(C)c1ccc(-c2nc3c4ccc(-c5ccccc5)cc4c4cc(-c5ccccc5)ccc4c3n2-c2ccc(C(C)(C)C)cc2)cc1
absorption maximum (in C1CCOC1): 331 nm | absorption maximum (in C1COCCO1): 333 nm | absorption maximum (in CC#N): 329 nm | absorption maximum (in CCCCCC): 331 nm | absorption maximum (in CCCCOCCCC): 331 nm | absorption maximum (in CCN(CC)CC): 332 nm | absorption maximum (in CCOC(C)=O): 329 nm | absorption maximum (in CCOCC): 330 nm | absorption maximum (in CN(C)C=O): 331 nm | absorption maximum (in Cc1ccccc1): 333 nm | absorption maximum (in ClC=C(Cl)Cl): 332 nm | absorption maximum (in ClCCl): 330 nm

absorption maximum (in ClCCl): 518.56 nm
SMILES: O=C1C(=c2c(=O)c3c4ccccc4cc4cc5ccccc5c2c43)C(=O)c2ccccc21

absorption maximum (in ClCCl): 310 nm
SMILES: COc1cc2c(cc1OC)C1=C[C@H](c3ccccc3)C3(C(C#N)=C(C#N)N1CC2)c1cc(Cl)ccc1-c1ccc(Cl)cc13

absorption maximum (in CC#N): 315 nm
SMILES: C(#Cc1nccnc1C#Cc1ccccc1)c1ccccc1

absorption maximum (in CC#N): 326 nm
SMILES: N#Cc1nn(-c2ccccc2C(F)(F)F)nc1N1CCCC1

absorption maximum (in ClCCl): 315.85 nm
SMILES: C=CCN(CC=C)c1ccc(-c2cc(-c3ccc(N(CC=C)CC=C)cc3)cc(-c3ccc(N(CC=C)CC=C)cc3)c2)cc1

absorption maximum (in CCCCCC): 486 nm
SMILES: CC(C)[Si](C#Cc1c2ccccc2c(C#C[Si](C(C)C)(C(C)C)C(C)C)c2nc3c(nc12)Cc1ccccc1-3)(C(C)C)C(C)C

absorption maximum (in C1CCCCC1): 310 nm
SMILES: CCn1c2ccccc2c2ccc(-c3ccc(OC)cc3)cc21

absorption maximum (in CCCCCC): 579 nm
SMILES: CC(C)[Si](C#Cc1c2nsnc2c(C#C[Si](C(C)C)(C(C)C)C(C)C)c2nc3c(ccc4cc5ccccc5cc43)nc12)(C(C)C)C(C)C

absorption maximum (in ClCCl): 404 nm
SMILES: CCCCCCn1c(=O)c2c3nc4ccccc4nc3c3c(=O)n(CCCCCC)c(=O)c3c2c1=O

absorption maximum (in ClC(Cl)Cl): 421 nm
SMILES: CCCCCCCCn1c(=O)c2cc3cc4cc5c(=O)n(CCCCCCCC)c(=O)c5cc4cc3cc2c1=O

SMILES: CC(C)(C)c1ccc(C(C)(C)C)c(N2C(=O)c3cccc4c(-c5ccc(-c6ccccc6)s5)ccc(c34)C2=O)c1
absorption maximum (in CO): 403 nm | absorption maximum (in CS(C)=O): 405 nm | absorption maximum (in Cc1ccccc1): 398 nm

absorption maximum (in ClCCl): 480 nm
SMILES: CN(C)c1ccc(C2=Nc3ccc4c(C(F)(F)F)cc(C(F)(F)F)nc4[n+]3[B-](F)(F)O2)cc1

absorption maximum (in ClC(Cl)Cl): 318 nm
SMILES: N#CCc1ccccc1-c1cc2ccccc2oc1=O

SMILES: CCC1=C(C)C2=C(c3c4ccccc4c(-c4ccccc4)c4ccccc34)c3c(C)c(CC)c(C)n3[B-](F)(F)[N+]2=C1C
absorption maximum (in CC#N): 528 nm | absorption maximum (in CCCCCC): 531 nm | absorption maximum (in CCO): 529 nm | absorption maximum (in CN(C)C=O): 530 nm | absorption maximum (in Cc1ccccc1): 534 nm | absorption maximum (in ClCCl): 532 nm

SMILES: COc1ccc(-c2nc3c(c4c2-c2ccccc2CC4)-c2ccccc2CC3)cc1
absorption maximum (in C1CCOC1): 322 nm | absorption maximum (in CC#N): 321 nm | absorption maximum (in CCCCCC): 322 nm | absorption maximum (in CCOC(C)=O): 310 nm | absorption maximum (in CO): 318 nm | absorption maximum (in CS(C)=O): 320 nm | absorption maximum (in Cc1ccccc1): 320 nm | absorption maximum (in ClCCl): 322 nm

absorption maximum (in ClCCl): 565 nm
SMILES: COc1cccc(OC)c1-c1c2ccc(=[N+]3CCCCC3)cc-2oc2cc(N3CCCCC3)ccc12

absorption maximum (in ClCCl): 422 nm
SMILES: c1ccc(N2N=C(c3ccc4ccc5cccc6ccc3c4c56)CC2c2ccc3ccc4cccc5ccc2c3c45)cc1 (centres undefined)

SMILES: CN(C)c1ccc(C2=Nc3sc4cc(Cl)ccc4[n+]3[B-](F)(F)O2)cc1
absorption maximum (in C1CCOC1): 430 nm | absorption maximum (in CC#N): 426 nm | absorption maximum (in CC(C)=O): 430 nm | absorption maximum (in Cc1ccccc1): 427 nm | absorption maximum (in ClCCl): 430 nm
